Assay [1] addresses Prothrombin (Homo sapiens, UniProt P00734). Nature of the assay: Thrombin 1536 HTS Dose Response Confirmation. [Related pubchem assays: 1046 (Thrombin 1536 HTS; hits were confirmed in this assay)]. Format: functional.
The nature of assay [2]: viability of PTEN-deleted HCT116 cells – cell-based, HCT116 PTEN knockout, dose response (AID 1047).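 Note: HCT116 colon tumor cells with PTEN knocked out; cells exposed to compound for 60 hours before readout; potency for loss of cell viability measured by luminescence.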 Format: functional.
Assay [3] has as its target 5-hydroxytryptamine receptor 1A (Homo sapiens, UniProt P08908). Type of assay: functional.
Assay [4] in a line: viability of HCT116 lacking mutant beta-catenin – cell-based, human colon tumor, dose response (AID 1045).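 Note: HCT116 colon tumor cells with beta catenin knocked out; cells exposed to compound for 60 hours.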 Format: functional.
Assay [5] deals with Mu-type opioid receptor (Homo sapiens, UniProt P35372). Type of assay: functional, cell-based.
The target in assay [6] is 5-hydroxytryptamine receptor 2A (Mus musculus, UniProt P35363). Format: functional, cell-based.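 Note: CHO-K1 cells with tagged receptor and beta-arrestin; agonist potency measured as compound-induced activation of the receptor.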
The target of assay [7] is T1, Estrogen receptor beta (Homo sapiens, UniProt Q92731).
T1 sequence (Q92731 whole entry): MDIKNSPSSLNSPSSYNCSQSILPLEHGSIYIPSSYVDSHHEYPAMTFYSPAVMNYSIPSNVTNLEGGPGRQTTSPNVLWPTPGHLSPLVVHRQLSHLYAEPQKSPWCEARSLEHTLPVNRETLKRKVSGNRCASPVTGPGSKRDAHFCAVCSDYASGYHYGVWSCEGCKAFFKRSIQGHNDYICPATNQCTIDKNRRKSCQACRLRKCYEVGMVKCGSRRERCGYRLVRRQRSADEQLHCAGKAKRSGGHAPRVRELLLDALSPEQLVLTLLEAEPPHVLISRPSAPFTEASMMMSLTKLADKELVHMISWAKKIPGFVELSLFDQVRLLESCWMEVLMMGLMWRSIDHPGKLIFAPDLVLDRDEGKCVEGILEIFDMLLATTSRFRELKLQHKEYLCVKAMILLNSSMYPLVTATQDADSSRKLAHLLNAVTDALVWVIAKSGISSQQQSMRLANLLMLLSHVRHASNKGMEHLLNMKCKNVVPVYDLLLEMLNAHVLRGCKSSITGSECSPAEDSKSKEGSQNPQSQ
For assay [8], the target named is T1, Estrogen receptor beta. Nature of the assay: blockers of SRC-3 recruitment to ERβ – biochemical, ELISA, streptavidin-HRP readout, orthogonal assay, confirmation (AID 1060).
The target in assay [9] is Ephrin type-A receptor 4 (Mus musculus, UniProt Q03137). Put plainly: EphA4 ligand-binding antagonists – biochemical, colorimetric, mouse EphA4, primary screen (AID 689). Type of assay: functional.
Assay [10] addresses Induced myeloid leukemia cell differentiation protein Mcl-1 (Homo sapiens, UniProt Q07820). Type of assay: functional.
The target in assay [11] is Eukaryotic translation initiation factor 4E (Mus musculus, UniProt P63073). Nature of the assay: blockers of eIF4G binding by eIF4E – biochemical, TR-FRET, dose response (AID 855).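 Note: potency for disrupting eIF4E binding to eIF4GI seen as loss of FRET.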 Type of assay: functional.
The target of assay [12] is T2, Carboxy-terminal domain RNA polymerase II polypeptide A small phosphatase 1 (Homo sapiens, UniProt Q9GZU7).
T2 sequence (Q9GZU7 whole entry): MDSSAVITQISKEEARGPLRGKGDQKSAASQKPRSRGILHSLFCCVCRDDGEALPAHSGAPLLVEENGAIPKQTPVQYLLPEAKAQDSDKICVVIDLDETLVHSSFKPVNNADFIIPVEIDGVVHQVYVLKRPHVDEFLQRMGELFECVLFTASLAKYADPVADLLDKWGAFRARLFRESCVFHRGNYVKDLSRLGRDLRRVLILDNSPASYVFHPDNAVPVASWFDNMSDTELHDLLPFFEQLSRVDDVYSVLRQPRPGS
Nature of the assay: CTDSP1 inhibitors, concentration-response, biochemical, absorbance readout, ultra-high-throughput screen actives (AID 540297). Format: functional.

The target in assay [13] is DNA (cytosine-5)-methyltransferase 1 (Homo sapiens, UniProt P26358). Nature of the assay: inhibition of DNA methylation by DNMT1 – biochemical, fluorescent molecular beacon, confirmation (AID 602386). Type of assay: functional.
Sequence of DNA (cytosine-5)-methyltransferase 1 (P26358 whole entry): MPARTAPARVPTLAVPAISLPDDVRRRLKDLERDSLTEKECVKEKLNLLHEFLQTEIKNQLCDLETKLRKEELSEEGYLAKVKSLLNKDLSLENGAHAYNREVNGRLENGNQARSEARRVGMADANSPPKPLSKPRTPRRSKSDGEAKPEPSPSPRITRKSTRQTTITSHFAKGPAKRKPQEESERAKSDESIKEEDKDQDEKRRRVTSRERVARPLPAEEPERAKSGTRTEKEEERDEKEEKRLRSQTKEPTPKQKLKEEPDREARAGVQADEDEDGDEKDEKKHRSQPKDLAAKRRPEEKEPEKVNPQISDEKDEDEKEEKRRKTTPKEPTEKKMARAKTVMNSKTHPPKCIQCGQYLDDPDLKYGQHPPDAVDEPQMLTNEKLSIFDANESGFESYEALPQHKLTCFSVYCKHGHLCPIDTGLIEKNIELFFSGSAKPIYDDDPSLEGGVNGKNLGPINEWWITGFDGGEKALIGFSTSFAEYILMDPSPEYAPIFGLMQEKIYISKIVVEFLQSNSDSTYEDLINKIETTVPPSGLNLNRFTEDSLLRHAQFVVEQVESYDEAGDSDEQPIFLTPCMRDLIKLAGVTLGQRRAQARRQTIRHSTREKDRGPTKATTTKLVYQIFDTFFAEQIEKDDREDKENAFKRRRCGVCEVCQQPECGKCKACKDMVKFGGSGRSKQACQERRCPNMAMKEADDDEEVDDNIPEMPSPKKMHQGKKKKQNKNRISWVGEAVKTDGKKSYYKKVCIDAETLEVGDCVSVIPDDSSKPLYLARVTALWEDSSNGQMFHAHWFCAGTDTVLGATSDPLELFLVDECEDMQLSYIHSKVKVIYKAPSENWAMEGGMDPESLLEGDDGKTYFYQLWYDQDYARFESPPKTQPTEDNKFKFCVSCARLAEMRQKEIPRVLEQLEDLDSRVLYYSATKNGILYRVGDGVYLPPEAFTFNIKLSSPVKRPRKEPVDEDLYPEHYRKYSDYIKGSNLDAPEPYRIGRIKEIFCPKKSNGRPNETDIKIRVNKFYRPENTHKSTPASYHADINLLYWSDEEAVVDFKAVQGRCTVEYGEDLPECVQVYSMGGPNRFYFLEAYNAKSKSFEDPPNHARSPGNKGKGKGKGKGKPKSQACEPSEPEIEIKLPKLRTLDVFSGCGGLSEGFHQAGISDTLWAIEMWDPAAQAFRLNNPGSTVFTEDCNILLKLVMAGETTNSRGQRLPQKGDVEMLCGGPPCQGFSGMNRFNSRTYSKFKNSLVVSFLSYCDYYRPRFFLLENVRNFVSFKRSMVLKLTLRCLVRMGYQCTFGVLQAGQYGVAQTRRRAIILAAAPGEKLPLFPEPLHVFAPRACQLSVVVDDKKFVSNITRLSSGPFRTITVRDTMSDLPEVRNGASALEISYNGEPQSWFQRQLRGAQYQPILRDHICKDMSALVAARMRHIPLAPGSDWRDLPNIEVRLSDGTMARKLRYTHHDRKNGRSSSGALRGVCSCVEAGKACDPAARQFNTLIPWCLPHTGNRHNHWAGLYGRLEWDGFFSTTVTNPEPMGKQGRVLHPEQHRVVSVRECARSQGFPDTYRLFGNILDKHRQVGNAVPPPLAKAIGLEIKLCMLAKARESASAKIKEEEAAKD
For assay [14], the target named is T3, Rac GTPase-activating protein 1 (Homo sapiens, UniProt Q9H0H5).
T3 sequence (Q9H0H5 whole entry): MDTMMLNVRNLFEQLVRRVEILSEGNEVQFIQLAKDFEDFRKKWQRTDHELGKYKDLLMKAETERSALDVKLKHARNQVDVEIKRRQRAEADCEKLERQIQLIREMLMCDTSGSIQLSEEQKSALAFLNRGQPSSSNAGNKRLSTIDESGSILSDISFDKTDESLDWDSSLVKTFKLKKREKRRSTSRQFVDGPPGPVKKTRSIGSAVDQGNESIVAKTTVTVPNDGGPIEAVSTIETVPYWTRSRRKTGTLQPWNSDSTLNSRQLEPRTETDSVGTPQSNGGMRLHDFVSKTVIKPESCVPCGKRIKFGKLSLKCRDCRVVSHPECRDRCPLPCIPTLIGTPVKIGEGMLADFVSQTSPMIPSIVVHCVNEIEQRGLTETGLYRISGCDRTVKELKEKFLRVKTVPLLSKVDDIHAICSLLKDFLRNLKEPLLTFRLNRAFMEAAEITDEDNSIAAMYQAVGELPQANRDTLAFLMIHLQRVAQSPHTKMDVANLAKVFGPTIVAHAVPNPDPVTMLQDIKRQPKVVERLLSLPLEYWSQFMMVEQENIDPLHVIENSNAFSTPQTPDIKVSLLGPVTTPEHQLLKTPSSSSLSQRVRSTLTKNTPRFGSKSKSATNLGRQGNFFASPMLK
Nature of the assay: blockers of MgcRacGAP-driven Rac1 GTP hydrolysis – biochemical, ADP Hunter fluorescence, primary and confirmatory, confirmation (AID 624330). Type of assay: functional.

A short description of assay [15]: decrease of insulin promoter-GFP reporter – imaging, high-content screening, mouse beta cells (AID 1628). Type of assay: functional. As to conditions: MIN6.
Assay [16] can be described thus: MIN6 cell viability loss – mouse insulinoma, cytotoxicity control, dose response (AID 2122).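 Note: confirmatory high-throughput counterscreen run to flag cytotoxic compounds.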 Format: functional.
Assay [17] can be described thus: Luminescence-based dose response cell-based high throughput screening assay for cytotoxic compounds using the IEC-6 intestinal epithelial cell line. [Related pubchem assays: 1858 (Summary AID.), 1825 (Counterscreen.), 1907 (Confirmation screen.)]. Format: functional.
Assay [18] can be described thus: Luminescent dose response cell-based high throughput screening assay for inhibitors of the Janus kinase 2 mutant JAK2V617F. [Related pubchem assays: 1446 (Primary screen.), 1521 (Confirmation assay.), 1486 (Counter screen.)]. Format: functional.
The target in assay [19] is T4, Sphingosine 1-phosphate receptor 4 (Homo sapiens, UniProt O95977).
T4 sequence (O95977 whole entry): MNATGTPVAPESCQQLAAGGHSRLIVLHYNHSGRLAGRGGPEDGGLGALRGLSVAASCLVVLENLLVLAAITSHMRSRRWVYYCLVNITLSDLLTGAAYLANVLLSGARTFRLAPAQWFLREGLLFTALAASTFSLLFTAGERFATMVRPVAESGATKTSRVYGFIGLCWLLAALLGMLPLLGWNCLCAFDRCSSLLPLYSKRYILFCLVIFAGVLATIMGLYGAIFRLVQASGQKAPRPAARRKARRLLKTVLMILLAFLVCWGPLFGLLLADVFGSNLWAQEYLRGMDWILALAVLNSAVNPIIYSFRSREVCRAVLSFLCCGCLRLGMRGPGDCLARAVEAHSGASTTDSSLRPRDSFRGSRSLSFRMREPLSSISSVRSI
Nature of the assay: Late stage fluorescence dose response cell-based screening assay for antagonists of the Sphingosine 1-Phosphate Receptor 4 (S1P4). [Related pubchem assays: 1524 (Confirmation screen (S1P4 antagonists).), 1510 (Primary screen (S1P4 antagonists).), 1853 (Summary AID (S1P4 antagonists).), 1692 (Dose response screen (S1P4 antagonists).)]. Format: functional.

In assay [20] the target is T4, Sphingosine 1-phosphate receptor 4. Nature of the assay: Fluorescence dose response cell-based high throughput screening assay for antagonists of the Sphingosine 1-Phosphate Receptor 4 (S1P4). [Related pubchem assays: 1524 (Confirmation in triplicates.), 1510 (Primary screen.)]. Format: functional.
Assay [21] has as its target Sphingosine 1-phosphate receptor 1 (Homo sapiens, UniProt P21453). Type of assay: functional.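 Note: Tango beta-arrestin reporter U2OS cells stimulated with S1P near its EC80; inhibitor potency meaning antagonism of receptor activation by the natural agonist.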
In assay [22] the target is T5, Replicative DNA helicase DnaB (Mycobacterium tuberculosis, UniProt P9WMR3).
T5 sequence (P9WMR3 whole entry): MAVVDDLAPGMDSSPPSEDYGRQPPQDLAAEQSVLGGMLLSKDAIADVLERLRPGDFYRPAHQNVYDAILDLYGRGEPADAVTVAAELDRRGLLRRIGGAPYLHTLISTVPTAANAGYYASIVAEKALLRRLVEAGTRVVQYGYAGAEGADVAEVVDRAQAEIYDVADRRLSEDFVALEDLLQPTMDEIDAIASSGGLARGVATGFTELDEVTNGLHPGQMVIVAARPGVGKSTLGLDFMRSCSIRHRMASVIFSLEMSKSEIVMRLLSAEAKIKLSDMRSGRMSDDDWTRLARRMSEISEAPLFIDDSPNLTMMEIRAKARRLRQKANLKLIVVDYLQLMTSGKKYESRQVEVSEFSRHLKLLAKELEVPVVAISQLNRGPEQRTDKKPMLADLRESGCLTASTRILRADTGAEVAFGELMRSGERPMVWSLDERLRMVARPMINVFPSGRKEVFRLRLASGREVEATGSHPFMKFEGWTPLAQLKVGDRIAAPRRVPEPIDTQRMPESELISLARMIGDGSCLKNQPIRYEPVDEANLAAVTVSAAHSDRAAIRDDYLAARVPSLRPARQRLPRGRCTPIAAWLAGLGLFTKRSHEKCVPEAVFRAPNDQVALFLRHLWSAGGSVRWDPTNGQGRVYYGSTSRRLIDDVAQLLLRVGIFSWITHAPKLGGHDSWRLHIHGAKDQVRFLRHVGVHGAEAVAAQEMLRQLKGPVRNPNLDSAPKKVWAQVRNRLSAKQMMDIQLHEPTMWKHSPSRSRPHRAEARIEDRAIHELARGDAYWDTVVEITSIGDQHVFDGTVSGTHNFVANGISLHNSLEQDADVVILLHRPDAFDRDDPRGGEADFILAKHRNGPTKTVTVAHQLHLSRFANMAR
Put plainly: DnaB intein splicing inhibitors, dose response, biochemical, cell-free fluorescence (AID 449749). Type of assay: functional.

Assay [23] has as its target Heat shock protein HSP 90-alpha (Homo sapiens, UniProt P07900). Type of assay: functional, organism-based.
The target of assay [24] is T6, Protein RecA (Mycobacterium tuberculosis, UniProt P9WHJ3).
T6 sequence (P9WHJ3 whole entry): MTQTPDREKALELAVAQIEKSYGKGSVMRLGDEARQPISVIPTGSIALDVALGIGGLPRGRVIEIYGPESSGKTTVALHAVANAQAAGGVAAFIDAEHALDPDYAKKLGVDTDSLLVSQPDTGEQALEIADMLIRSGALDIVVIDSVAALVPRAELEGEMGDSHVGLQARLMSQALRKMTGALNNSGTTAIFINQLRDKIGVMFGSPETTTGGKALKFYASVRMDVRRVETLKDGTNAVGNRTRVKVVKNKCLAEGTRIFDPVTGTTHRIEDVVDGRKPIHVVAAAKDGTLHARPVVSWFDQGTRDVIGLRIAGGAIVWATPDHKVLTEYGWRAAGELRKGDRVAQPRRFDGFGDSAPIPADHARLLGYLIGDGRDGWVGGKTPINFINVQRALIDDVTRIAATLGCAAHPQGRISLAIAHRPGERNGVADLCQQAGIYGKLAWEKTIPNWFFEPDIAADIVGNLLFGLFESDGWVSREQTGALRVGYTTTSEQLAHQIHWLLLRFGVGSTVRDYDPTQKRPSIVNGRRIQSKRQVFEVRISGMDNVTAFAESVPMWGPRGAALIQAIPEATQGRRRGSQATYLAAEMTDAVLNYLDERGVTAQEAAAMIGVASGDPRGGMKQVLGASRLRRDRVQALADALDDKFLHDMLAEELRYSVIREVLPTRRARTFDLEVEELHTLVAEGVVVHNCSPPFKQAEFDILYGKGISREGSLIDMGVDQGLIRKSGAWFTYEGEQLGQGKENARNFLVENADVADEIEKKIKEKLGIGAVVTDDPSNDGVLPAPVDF
Put plainly: Fluorescence Cell-Free Homogeneous Dose Retest to Identify Inhibitors of RecA-Intein Splicing Activity. [Related pubchem assays (depositor defined):AID2097, AID2223, AID489010, AID492950]. Format: functional.

Assay [25] has as its system INS1. Nature of the assay: INS-1E survival protection against cytokine death – cell-based, luminescence, retest, dose response (AID 449756).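 Note: cell death triggered by IL-1 beta plus TNF-alpha plus IFN-gamma mixture; protective hits raise ATP signal compared with cytokine alone wells.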 Format: functional. As to conditions: Rattus norvegicus.
A short description of assay [26]: reduction of Shn3 3'UTR-driven luciferase in osteoblasts – cell-based, Clone20 osteoblasts, firefly luciferase, cherry-picked, dose response (AID 624132).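 Note: firefly luciferase luminescence from reporter carrying the Shn3 3'UTR in osteoblasts.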 Format: functional.
The nature of assay [27]: loss of viability in HepG2 cells – cell-based, CellTiter-Glo, cherry-picked, cytotoxicity control for Shn3 inhibitor project, dose response (AID 624134). Format: functional.
Assay [28] is described as follows: non-specific 3'UTR reporter inhibition in Clone20-Shn3RL – cell-based, Renilla luciferase, cherry-picked, counter-screen for Shn3 inhibitor project, dose response (AID 624133). Format: functional.
Assay [29] deals with T7, Fatty acid synthase (Homo sapiens, UniProt P49327). Put plainly: inhibition of human FAS-TE enzyme activity – biochemical, endpoint fluorescence intensity, uHTS hits, dose response (AID 624327).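 Note: fluorescence from hydrolysis of an O-methyl fluorescein acyl ester substrate by the enzyme.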 Format: functional.
T7 sequence (P49327 whole entry): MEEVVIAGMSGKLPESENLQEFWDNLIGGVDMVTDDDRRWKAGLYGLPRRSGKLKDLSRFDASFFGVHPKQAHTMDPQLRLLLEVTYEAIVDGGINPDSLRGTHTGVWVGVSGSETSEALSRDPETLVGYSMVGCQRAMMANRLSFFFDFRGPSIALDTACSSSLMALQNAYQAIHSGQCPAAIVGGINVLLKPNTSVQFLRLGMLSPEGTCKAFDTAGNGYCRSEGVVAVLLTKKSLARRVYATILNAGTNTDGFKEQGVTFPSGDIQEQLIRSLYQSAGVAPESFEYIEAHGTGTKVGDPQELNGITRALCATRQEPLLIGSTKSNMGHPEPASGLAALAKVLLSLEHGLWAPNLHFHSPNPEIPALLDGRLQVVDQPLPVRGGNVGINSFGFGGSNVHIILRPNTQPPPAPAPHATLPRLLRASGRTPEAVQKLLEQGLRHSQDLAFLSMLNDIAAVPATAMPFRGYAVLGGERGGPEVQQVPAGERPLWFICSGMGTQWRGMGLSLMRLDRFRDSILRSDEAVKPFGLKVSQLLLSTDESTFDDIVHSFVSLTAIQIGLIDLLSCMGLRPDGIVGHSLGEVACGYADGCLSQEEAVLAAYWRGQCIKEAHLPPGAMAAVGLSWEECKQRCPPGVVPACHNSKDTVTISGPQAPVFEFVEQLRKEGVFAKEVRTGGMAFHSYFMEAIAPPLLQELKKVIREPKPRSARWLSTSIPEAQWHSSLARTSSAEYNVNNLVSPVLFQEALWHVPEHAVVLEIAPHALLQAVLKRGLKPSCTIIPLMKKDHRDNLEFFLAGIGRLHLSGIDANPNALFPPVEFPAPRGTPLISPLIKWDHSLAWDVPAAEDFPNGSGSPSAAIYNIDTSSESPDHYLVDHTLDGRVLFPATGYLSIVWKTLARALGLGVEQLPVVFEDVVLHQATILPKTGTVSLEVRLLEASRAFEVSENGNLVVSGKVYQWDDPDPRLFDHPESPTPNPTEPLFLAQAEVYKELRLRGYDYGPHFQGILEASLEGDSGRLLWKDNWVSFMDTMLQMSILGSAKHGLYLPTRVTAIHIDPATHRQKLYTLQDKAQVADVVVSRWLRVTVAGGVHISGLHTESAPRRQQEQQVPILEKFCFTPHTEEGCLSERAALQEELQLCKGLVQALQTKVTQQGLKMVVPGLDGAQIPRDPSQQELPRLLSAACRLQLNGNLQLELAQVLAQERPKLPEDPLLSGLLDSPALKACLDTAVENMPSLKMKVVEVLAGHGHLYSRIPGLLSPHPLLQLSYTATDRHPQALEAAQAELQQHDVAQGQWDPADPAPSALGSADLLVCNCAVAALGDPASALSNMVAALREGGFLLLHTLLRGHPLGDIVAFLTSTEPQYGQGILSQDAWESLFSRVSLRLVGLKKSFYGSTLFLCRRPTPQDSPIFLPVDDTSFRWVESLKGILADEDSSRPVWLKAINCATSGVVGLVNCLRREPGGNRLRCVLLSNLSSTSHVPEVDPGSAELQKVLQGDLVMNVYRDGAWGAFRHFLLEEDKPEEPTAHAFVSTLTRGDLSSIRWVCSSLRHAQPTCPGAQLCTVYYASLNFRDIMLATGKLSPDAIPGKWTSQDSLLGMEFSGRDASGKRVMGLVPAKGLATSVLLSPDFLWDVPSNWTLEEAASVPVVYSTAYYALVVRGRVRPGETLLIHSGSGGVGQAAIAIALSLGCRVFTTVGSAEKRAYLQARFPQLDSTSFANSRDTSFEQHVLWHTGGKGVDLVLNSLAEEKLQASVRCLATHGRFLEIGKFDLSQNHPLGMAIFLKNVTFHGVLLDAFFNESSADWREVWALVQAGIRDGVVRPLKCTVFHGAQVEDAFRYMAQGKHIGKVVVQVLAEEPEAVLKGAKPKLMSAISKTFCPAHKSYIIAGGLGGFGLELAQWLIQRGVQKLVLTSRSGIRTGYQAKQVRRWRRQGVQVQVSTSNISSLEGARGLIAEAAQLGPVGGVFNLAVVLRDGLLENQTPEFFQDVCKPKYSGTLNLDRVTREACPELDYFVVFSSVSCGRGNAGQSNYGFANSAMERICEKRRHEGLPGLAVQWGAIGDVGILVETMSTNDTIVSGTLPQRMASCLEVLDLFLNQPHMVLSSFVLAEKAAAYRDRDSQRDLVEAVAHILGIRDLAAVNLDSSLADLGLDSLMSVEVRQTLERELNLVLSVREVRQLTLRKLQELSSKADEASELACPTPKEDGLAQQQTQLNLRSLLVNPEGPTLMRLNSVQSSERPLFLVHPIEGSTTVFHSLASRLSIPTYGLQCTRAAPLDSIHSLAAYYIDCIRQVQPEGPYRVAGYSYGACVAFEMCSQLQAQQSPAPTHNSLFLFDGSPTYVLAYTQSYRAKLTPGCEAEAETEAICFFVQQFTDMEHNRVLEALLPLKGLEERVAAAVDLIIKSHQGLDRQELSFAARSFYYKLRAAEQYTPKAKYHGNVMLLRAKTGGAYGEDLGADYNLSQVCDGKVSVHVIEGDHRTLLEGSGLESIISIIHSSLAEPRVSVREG
The target of assay [30] is T7, Fatty acid synthase. Put plainly: inhibition of human FAS-TE enzyme activity – biochemical, kinetic fluorescence intensity, dose response (AID 624326).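 Note: rate of fluorescence rise from hydrolysis of a fluorogenic O-methyl fluorescein ester substrate.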 Type of assay: functional.

The source made the active and inactive calls.

Sequence of 5-hydroxytryptamine receptor 1A (P08908 whole entry): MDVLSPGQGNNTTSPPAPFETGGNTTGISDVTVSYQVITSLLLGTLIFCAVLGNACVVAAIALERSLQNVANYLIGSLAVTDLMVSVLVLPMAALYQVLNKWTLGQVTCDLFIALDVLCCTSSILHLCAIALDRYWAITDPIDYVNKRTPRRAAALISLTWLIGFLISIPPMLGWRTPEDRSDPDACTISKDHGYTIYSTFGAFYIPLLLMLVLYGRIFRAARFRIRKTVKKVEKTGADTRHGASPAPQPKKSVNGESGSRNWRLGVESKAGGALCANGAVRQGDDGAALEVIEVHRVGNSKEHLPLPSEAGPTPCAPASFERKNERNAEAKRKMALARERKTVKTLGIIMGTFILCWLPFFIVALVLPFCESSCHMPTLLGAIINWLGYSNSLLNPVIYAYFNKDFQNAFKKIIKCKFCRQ

On to `COc1ccc(NC(=NC(C)=O)Nc2nc(C)cc(C)n2)cc1OC`, for which, in assay [1], the IC50 was 2.95 µM (active).
For `CCCCc1ccc2[nH]cc(CCN)c2c1`, the EC50 is 10.6 µM (active) in [2]; 1.81 µM (active) in assay [3]; 12.6 µM (active) in assay [4]; 92.5 µM (inactive) in assay [5]; 13.3 µM (inactive) in [6].
Take `COc1ccc(Cc2nnc(NC(=O)Cc3cccs3)s2)cc1`: the IC50 in assay [7] is < 1.56 µM (active); in [8] it was 0.0725 µM (not active); in assay [9], 13.6 µM (active); in assay [10] it was 1.59 µM (active); in assay [11] it was 16.9 µM (active); in assay [12] it was 2.82 µM (active). The IC50 is 4.47 µM (active) in [13] and 52 µM (active) in assay [14].
As for `OC1=C2C(=Nc3cc4c(cc3C2c2ccc(F)cc2)OCO4)CO1` (configuration not stated), the values for the IC50 in assay [15], in assay [16] and in [17] were 1.32 µM (active), < 0.25 µM (active) and 0.112 µM (active), respectively.
As to `COC(=O)c1c(C)nn(-c2ccccc2)c1-n1cccc1`, the IC50 in assay [1] is reported as > 50 µM (not active).
As for `Cc1ccccc1CS(=O)(=O)c1nnc([C@H](Cc2ccccc2)NC(=O)OC(C)(C)C)o1`, the IC50 in assay [18] was 0.695 µM (active); in assay [19], 3.49 µM (not active); in assay [20], 1.69 µM (active); in assay [21], > 49.8 µM (not active); in [29] it was 6.74 µM (active); in assay [30] it was 8.22 µM (active). The AC50 was 3.51 µM (active) in assay [22]; 24.1 µM (active) in [23]; 8.99 µM (active) in assay [25]; 1.23 µM (active) in assay [26]; > 70 µM (inactive) in [27]; 8.32 µM (active) in [28]. The concentration giving a half-maximal response (EC50) in [24] was 8.54 µM (active).
As to `COc1ccc(CN2CCN(c3ccccc3F)CC2)c(OC)c1`, the EC50 in assay [3] is recorded as > 50 µM (not active).

Source of the values: ChEMBL document CHEMBL1201862, “PubChem BioAssay data set” (2004).
